Literature values, collected in paper PMC8284440, “Toward New Transmission-Blocking Combination Therapies: Pharmacokinetics of 10-Amino-Artemisinins and 11-Aza-Artemisinin and Comparison with Dihydroartemisinin and Artemether” (Antimicrobial Agents and Chemotherapy, 2021).
Values after ≈ are worked out from the molar mass of the structure shown. Values joined by “and” are separate entries in the source; they are usually repeats but may differ in a detail not shown here. Equal values may be shown once. Read-outs that look alike come from different tables or passages of the source.

Key:
[1] = test system: P. falciparum 7G8; design: method as in ref 5 (supplement; main text 63); conditions: CQ resistant; ref 5 (supplement; main text 63); read-out: Antimalarial activities IC50 7G8; cited from earlier work
[2] = test system: P. falciparum NF54; design: method as in ref 1 and 2 (supplement; main text 47, 48); conditions: Table S1, ± SEM; ref 1 and 2 (supplement; main text 47, 48); cited from earlier work
[3] = test system: P. falciparum TM-C2B; design: method as in ref 5 (supplement; main text 63); conditions: atovaquone and CQ resistant; ref 5 (supplement; main text 63); read-out: Antimalarial activities IC50 TM-C2B; cited from earlier work
[4] = test system: murine cerebral malaria; design: method as in PMID 20691118; conditions: prescribed low dose levels; cited from earlier work
[5] = test system: P. falciparum NF54; design: method as in ref 4 (supplement; main text 62); conditions: Table S2, ± SEM; ref 4 (supplement; main text 62); read-out: Antimalarial activities IC50 NF54; cited from earlier work
[6] = test system: P. falciparum TM91-C235; design: method as in ref 5 (supplement; main text 63); conditions: CQ and mefloquine resistant; ref 5 (supplement; main text 63); read-out: Antimalarial activities IC50 TM91-C235; cited from earlier work
[7] = test system: P. falciparum W2; design: method as in ref 1 and 2 (supplement; main text 47, 48); conditions: Table S1, ± SEM; ref 1 and 2 (supplement; main text 47, 48); cited from earlier work
[8] = test system: CamWTC580Y, Cam3.IIC580Y and Cam3.IIRev strains; design: method as in PMID 25049252; conditions: read-out: mean IC50 across Cambodian strains; cited from earlier work
[9] = test system: P. falciparum D6; design: method as in ref 5 (supplement; main text 63); conditions: CQ sensitive; ref 5 (supplement; main text 63); read-out: Antimalarial activities IC50 D6; cited from earlier work
[10] = test system: P. falciparum K1; design: method as in ref 1 and 2 (supplement; main text 47, 48); conditions: Table S1, ± SEM; ref 1 and 2 (supplement; main text 47, 48); cited from earlier work
[11] = test system: P. falciparum K1; design: method as in ref 4 (supplement; main text 62); conditions: Table S2, ± SEM; ref 4 (supplement; main text 62); read-out: Antimalarial activities IC50 K1; cited from earlier work
[12] = test system: P. falciparum W2; design: method as in ref 4 (supplement; main text 62); conditions: Table S2, ± SEM; ref 4 (supplement; main text 62); read-out: Antimalarial activities IC50 W2; cited from earlier work
[13] = test system: P. falciparum W2; design: method as in ref 5 (supplement; main text 63); conditions: CQ resistant; ref 5 (supplement; main text 63); read-out: Antimalarial activities IC50 W2; cited from earlier work
[14] = test system: Chinese hamster ovary (CHO) cells; conditions: read-out: Cytotoxicity EC50 CHO; MTT, ±SD; ref 1 and 2 (supplement; main text 47, 48); cited from earlier work
[15] = test system: P. falciparum W2; design: method as in PMID 25049252; conditions: read-out: activity against W2; cited from earlier work
[16] = test system: P. falciparum TM93-C1088; design: method as in ref 5 (supplement; main text 63); conditions: atovaquone and CQ resistant; ref 5 (supplement; main text 63); read-out: Antimalarial activities IC50 TM93-C1088; cited from earlier work
[17] = in vivo; cited from earlier work
[18] = test system: liver stage P. berghei ANKA GFP-Luc-SMcon sporozoites; design: method as in ref 2 (supplement; main text 48); conditions: ref 2 (supplement; main text 48), cited from earlier work; for IC50: 48 h, ± SD
[19] = test system: nonsevere malaria; design: method as in PMID 18559649, PMID 30902052, doi:10.4103/jpp.JPP_23_20; conditions: patients with nonsevere malaria; cited from earlier work
[20] = design: method as in PMID 16444785; conditions: cited from earlier work
[21] = design: method as in PMID 16444785, PMID 18559649; conditions: female rats, cited from earlier work
[22] = test system: HepG2; conditions: read-out: Cytotoxicity EC50 HepG2; ref 2 (supplement; main text 48); cited from earlier work
[23] = test system: W2 ring-stage parasites; design: method as in PMID 25288088; conditions: not in a concentration-dependent manner; cited from earlier work
[24] = cited from earlier work
[25] = test system: WI-38 HFLF; design: method as in ref 4 (supplement; main text 62); conditions: Table S2; ref 4 (supplement; main text 62); read-out: Cytotoxicities IC50 WI-38 HFLF; cited from earlier work
[26] = test system: late stage (IV-V) P. falciparum NF54 gametocytes; design: method as in ref 4 (supplement; main text 62); conditions: Table S4, n = 1; ref 4 (supplement; main text 62); read-out: Late stage IC50 (pLDH 72 + 72 h); cited from earlier work

Row | Structure (SMILES) | IC50 [1] [nM] | IC50 [2] [nM] | IC50 [3] [nM] | IC50 [5] [nM] | IC50 [6] [nM] | IC50 [7] [nM] | IC50 [9] [nM] | IC50 [10] [nM] | IC50 [11] [nM] | IC50 [12] [nM] | IC50 [13] [nM] | EC50 [14] [nM] | IC50 [16] [nM] | IC50 [18] [nM] | Maximum inhibition % ([18]; at 10 µM) [%] | EC50 [22] [nM] | aqueous solubility at pH 7.2 [24] | also measured
1 | C[C@H]1[C@@H](O)O[C@@H]2O[C@@]3(C)CC[C@H]4[C@H](C)CC[C@@H]1[C@@]24OO3 [DHA 2, dihydroartemisinin] | 1.3 ± 0.2 | 2.51 ± 0.19 | 2 ± 0.7 | 0.57 ± 0.01 | 2.3 ± 0.7 | 1.74 ± 0.22 | 1.7 ± 0.4 | 1.51 ± 0.33 | 0.8 ± 0.5 | 0.37 ± 0.11 | 2.2 ± 0.8 | 25200 | 1.4 ± 0.4 | – | – | – | – | Cure of murine cerebral malaria [4]: no cure; IC50 [8]: 11.2 nM; IC50 [15]: 5.2 nM
2 | C[C@H]1[C@H](N2CCS(=O)(=O)CC2)O[C@@H]2O[C@@]3(C)CC[C@H]4[C@H](C)CC[C@@H]1[C@@]24OO3 [Artemisone 6, artemisone] | 0.8 ± 0.1 | 1.2 ± 0.4 | 1.1 ± 0.4 | – | 1.1 ± 0.5 | 1.6 ± 0.4 | 1 ± 0.4 | 1.01 ± 0.19 | – | – | 1.3 ± 0.5 | > 249000 | 0.7 ± 0.2 | 28.3 | 93.35±1.76 | > 50000 | 89 mg/liter and 221.6 μM | Cure of murine cerebral malaria [4]: completely curative; artemisone equivalent concentrations at Tmax by bioassay versus LC/MS-MS, fold higher [17]: about 2.3 fold; IC50 [8]: 2.4 nM; Cure in phase IIa trial [19]: curative at one-third the dose level of artesunate; Neurotoxicity [20]: nonneurotoxic; Cmax ([21]; single oral dose 3 mg/kg): 35 ng/mL; elimination half-life ([21]; single oral dose 3 mg/kg): 10.8 min; Cmax ([21]; single oral dose 10 mg/kg): 230 ng/mL; elimination half-life ([21]; single oral dose 10 mg/kg): 22.2 min; Cmax ([21]; single oral dose 30 mg/kg): 850 ng/mL; elimination half-life ([21]; single oral dose 30 mg/kg): 32.4 min; IC50 [15]: 1.9 nM; Induction of quiescence in W2 ring-stage parasites [23]: induce quiescence
3 | C[C@H]1[C@H](N2CCSCC2)O[C@@H]2O[C@@]3(C)CC[C@H]4[C@H](C)CC[C@@H]1[C@@]24OO3 [Artemiside 5, artemiside] | – | 1.11 ± 0.17 | – | – | – | 1.75 ± 0.27 | – | 1.6 ± 0.4 | – | – | – | > 271000 | – | 81.3 | – | > 25000 | < 2 mg/liter and < 5.4 μM | Maximum inhibition % ([18]; at 5 µM): 99.05±1.34%
4 | C[C@@H]1CC[C@H]2[C@@H](C)C(=O)N[C@@H]3O[C@@]4(C)CC[C@@H]1[C@]32OO4 [11-Aza-artemisinin 11, 11-aza-artemisinin] | – | – | – | 10.5 ± 1.36 | – | – | – | – | 9.44 ± 2.93 | 6.02 ± 1.81 | – | – | – | – | – | – | – | IC50 [25]: > 100000 nM; IC50 [26]: 622 nM
5 | C[C@H]1[C@H](NS(N)(=O)=O)O[C@@H]2O[C@@]3(C)CC[C@H]4[C@H](C)CC[C@@H]1[C@@]24OO3 [Sulfamide 7] | – | 3 ± 1 | – | – | – | 2.04 ± 0.11 | – | 1.78 ± 0.26 | – | – | – | 56000 ± 4600 | – | – | – | – | 294 mg/liter and 811 μM | –
6 | CO[C@H]1O[C@@H]2O[C@@]3(C)CC[C@H]4[C@H](C)CC[C@@H]([C@H]1C)[C@@]24OO3 [Artemether 3, artemether] | – | – | – | 1.86 ± 0.17 | – | – | – | – | 2.64 ± 0.18 | 6.7 ± 0.6 | – | – | – | > 104 | 49.4 | – | – | IC50 ([18]; listed as artemether): > 10000 nM; aqueous solubility ([24]; 25°C): 12.1 µg/mL (≈ 40.6 µM); aqueous solubility [24]: 300 µg/mL (≈ 1010 µM); aqueous solubility rating [24]: insoluble; aqueous solubility ([24]; variously recorded): < 1000 µg/mL
7 | C[C@H]1[C@H](N2CCN(C(=O)Nc3ccc(F)cc3)CC2)O[C@@H]2O[C@@]3(C)CC[C@H]4[C@H](C)CC[C@@H]1[C@@]24OO3 [Arylurea 10] | – | 1.3 ± 0.1 | – | – | – | 1.16 ± 0.17 | – | 0.85 ± 0.1 | – | – | – | 204000 | – | 106 | 94.85±2.76 | 5160 | – | –
8 | C[C@H]1[C@H](N2C=CS(=O)(=O)CC2)O[C@@H]2O[C@@]3(C)CC[C@H]4[C@H](C)CC[C@@H]1[C@@]24OO3 [M1 12] | 2.6 ± 0.8 | – | 8.6 ± 8.2 | – | 5 ± 0.6 | – | 4.7 ± 0.2 | – | – | – | 6.6 ± 0.4 | – | 2.5 ± 0.4 | – | – | – | – | Induction of quiescence in W2 ring-stage parasites [23]: induce quiescence
